Measurements: PubChem BioAssay (NCI)
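Assay format: 96-well plates, 48-hour exposure. TGI: total growth inhibition.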

Key:
Experiment in all cases: NCI tumour cell line growth inhibition, 48 h
[1] = system: 786-0 renal
[2] = system: A498 renal
[3] = system: A549 NSCLC
[4] = system: ACHN renal
[5] = system: CAKI-1 renal
[6] = system: CCRF-CEM leukemia
[7] = system: COLO 205 colon
[8] = system: DMS 273 small cell lung
[9] = system: EKVX NSCLC
[10] = system: HCC-2998 colon
[11] = system: HCT-116 colon
[12] = system: HCT-15 colon
[13] = system: HL-60(TB) leukemia
[14] = system: HOP-18 NSCLC
[15] = system: HOP-62 NSCLC
[16] = system: HOP-92 NSCLC
[17] = system: HT29 colon
[18] = system: IGROV1 ovarian
[19] = system: K-562 leukemia
[20] = system: KM12 colon
[21] = system: KM20L2 colon
[22] = system: LOX IMVI melanoma
[23] = system: LXFL 529 NSCLC
[24] = system: M14 melanoma
[25] = system: M19-MEL melanoma
[26] = system: MALME-3M melanoma
[27] = system: MOLT-4 leukemia
[28] = system: NCI-H226 lung
[29] = system: NCI-H23 lung
[30] = system: NCI-H460 lung
[31] = system: NCI-H522 lung
[32] = system: OVCAR-3 ovarian
[33] = system: OVCAR-4 ovarian
[34] = system: OVCAR-5 ovarian
[35] = system: OVCAR-8 ovarian
[36] = system: RPMI-8226 leukemia
[37] = system: SF-268 CNS
[38] = system: SF-295 CNS
[39] = system: SF-539 CNS
[40] = system: SK-MEL-2 melanoma
[41] = system: SK-MEL-28 melanoma
[42] = system: SK-MEL-5 melanoma
[43] = system: SK-OV-3 ovarian
[44] = system: SN12C renal
[45] = system: SNB-19 CNS
[46] = system: SNB-75 CNS
[47] = system: SNB-78 CNS
[48] = system: SR leukemia
[49] = system: SW-620 colon
[50] = system: TK-10 renal
[51] = system: U251 CNS
[52] = system: UACC-257 melanoma
[53] = system: UACC-62 melanoma
[54] = system: UO-31 renal
[55] = system: BT-549 breast
[56] = system: DU-145 prostate
[57] = system: HS 578T breast
[58] = system: MCF7 breast
[59] = system: MDA-MB-231 breast
[60] = system: MDA-MB-435
[61] = system: MDA-N
[62] = system: NCI/ADR-RES ovarian
[63] = system: PC-3 prostate
[64] = system: RXF 393 renal
[65] = system: T-47D breast
[66] = system: DLD-1 colon
[67] = system: DMS 114 small cell lung

Cc1ccc(SC2C(C)(C)N(C(C)C)P2(=O)N(C(C)C)C(C)C)cc1 (stereo not drawn)
TGI [1]: > 100 µM | TGI [2]: > 100 µM | TGI [3]: > 70.8 µM | TGI [4]: > 100 µM | TGI [5]: > 100 µM | TGI [6]: > 55.7 µM | TGI [7]: > 64.1 µM | TGI [8]: 27.7 µM | TGI [9]: 97.3 µM | TGI [10]: > 100 µM | TGI [11]: > 63.4 µM | TGI [12]: > 100 µM | TGI [13]: 41.9 µM | TGI [14]: > 100 µM | TGI [15]: > 100 µM | TGI [16]: 58.3 µM | TGI [17]: > 100 µM | TGI [18]: > 100 µM | TGI [19]: > 52.4 µM | TGI [20]: > 100 µM | TGI [21]: > 100 µM | TGI [22]: > 59.9 µM | TGI [23]: > 100 µM | TGI [24]: > 100 µM | TGI [25]: > 86.6 µM | TGI [26]: > 100 µM | TGI [27]: > 59.3 µM | TGI [28]: > 100 µM | TGI [29]: > 100 µM | TGI [30]: > 67.6 µM | TGI [31]: > 74.2 µM | TGI [32]: > 100 µM | TGI [33]: > 100 µM | TGI [34]: > 100 µM | TGI [35]: > 100 µM | TGI [36]: 36.8 µM | TGI [37]: > 100 µM | TGI [38]: > 100 µM | TGI [39]: > 100 µM | TGI [40]: > 100 µM | TGI [41]: > 100 µM | TGI [42]: > 100 µM | TGI [43]: > 100 µM | TGI [44]: > 100 µM | TGI [45]: > 100 µM | TGI [46]: > 100 µM | TGI [47]: > 100 µM | TGI [48]: 31.4 µM | TGI [49]: > 50 µM | TGI [50]: > 100 µM | TGI [51]: > 100 µM | TGI [52]: 67.5 µM | TGI [53]: > 100 µM | TGI [54]: > 100 µM

NS(=O)(=O)c1ccc(N=Nc2ccc(O)c(O)c2)cc1
TGI [1]: > 100 µM | TGI [2]: > 100 µM | TGI [3]: 48.7 µM | TGI [4]: 17 µM | TGI [55]: 14.4 µM | TGI [5]: > 100 µM | TGI [6]: 60 µM | TGI [7]: 40.3 µM | TGI [56]: > 100 µM | TGI [9]: > 100 µM | TGI [10]: 41.3 µM | TGI [11]: 26.2 µM | TGI [12]: 12.6 µM | TGI [13]: 86.9 µM | TGI [15]: 56.3 µM | TGI [16]: 69.3 µM | TGI [57]: 67.3 µM | TGI [17]: 66.5 µM | TGI [18]: 28.3 µM | TGI [19]: > 100 µM | TGI [20]: 32.5 µM | TGI [22]: 36 µM | TGI [24]: 65.2 µM | TGI [26]: 54.9 µM | TGI [58]: > 100 µM | TGI [59]: 38.8 µM | TGI [60]: 32.2 µM | TGI [61]: > 100 µM | TGI [27]: > 100 µM | TGI [28]: 40.8 µM | TGI [29]: 51.8 µM | TGI [30]: 58.9 µM | TGI [31]: 3.1 µM | TGI [62]: 73.2 µM | TGI [32]: > 100 µM | TGI [33]: 29.1 µM | TGI [34]: > 100 µM | TGI [35]: 21.5 µM | TGI [63]: > 100 µM | TGI [36]: 39.7 µM | TGI [64]: 34.8 µM | TGI [37]: 50.2 µM | TGI [38]: > 100 µM | TGI [39]: 45.1 µM | TGI [40]: 34 µM | TGI [41]: 37.2 µM | TGI [42]: 19.7 µM | TGI [43]: 67 µM | TGI [44]: 44.9 µM | TGI [45]: 84 µM | TGI [46]: 60.8 µM | TGI [48]: 48 µM | TGI [49]: 41.4 µM | TGI [65]: > 100 µM | TGI [50]: 93 µM | TGI [51]: 72.9 µM | TGI [52]: 66.6 µM | TGI [54]: 26.4 µM

COc1ccc2c(c1)CC[C@@H]1C2CC[C@]2(C)C(=O)N(CCN3CCCCC3)C(=O)CC12 (stereo partly drawn)
TGI [1]: > 100 µM | TGI [2]: > 100 µM | TGI [4]: > 100 µM | TGI [6]: > 100 µM | TGI [7]: > 100 µM | TGI [11]: > 100 µM | TGI [13]: 61.1 µM | TGI [15]: > 100 µM | TGI [16]: > 100 µM | TGI [17]: > 100 µM | TGI [18]: > 100 µM | TGI [19]: > 100 µM | TGI [20]: > 100 µM | TGI [21]: > 100 µM | TGI [23]: > 100 µM | TGI [24]: 48.9 µM | TGI [25]: > 100 µM | TGI [26]: > 100 µM | TGI [29]: > 100 µM | TGI [30]: > 100 µM | TGI [31]: > 100 µM | TGI [33]: > 100 µM | TGI [34]: > 100 µM | TGI [36]: > 100 µM | TGI [64]: 99.2 µM | TGI [37]: > 100 µM | TGI [38]: > 100 µM | TGI [39]: > 100 µM | TGI [40]: > 100 µM | TGI [41]: > 100 µM | TGI [43]: > 100 µM | TGI [45]: > 100 µM | TGI [46]: > 100 µM | TGI [47]: > 100 µM | TGI [48]: > 100 µM | TGI [51]: > 100 µM | TGI [52]: 63.4 µM | TGI [53]: 41.7 µM | TGI [54]: > 100 µM

Cc1ccc([S+](c2ccccc2)c2cc(C)ccc2C)cc1 (stereo not drawn)
TGI [1]: > 100 µM | TGI [2]: 32.1 µM | TGI [3]: > 100 µM | TGI [4]: > 100 µM | TGI [5]: > 100 µM | TGI [6]: > 100 µM | TGI [7]: 61.2 µM | TGI [66]: 19.1 µM | TGI [67]: 13.8 µM | TGI [8]: 15.3 µM | TGI [9]: > 100 µM | TGI [10]: 28.5 µM | TGI [11]: > 100 µM | TGI [13]: 66.5 µM | TGI [14]: 26.4 µM | TGI [15]: 90.8 µM | TGI [18]: 25.3 µM | TGI [19]: > 100 µM | TGI [20]: > 100 µM | TGI [22]: > 100 µM | TGI [24]: > 100 µM | TGI [25]: > 100 µM | TGI [26]: > 100 µM | TGI [27]: > 100 µM | TGI [30]: > 100 µM | TGI [31]: 28.2 µM | TGI [32]: > 100 µM | TGI [33]: > 100 µM | TGI [35]: > 100 µM | TGI [36]: > 100 µM | TGI [37]: > 100 µM | TGI [38]: 69.1 µM | TGI [39]: > 100 µM | TGI [42]: 3.91 µM | TGI [44]: 46.3 µM | TGI [45]: > 100 µM | TGI [46]: 2.9 µM | TGI [48]: > 100 µM | TGI [49]: > 100 µM | TGI [52]: > 100 µM | TGI [53]: > 100 µM | TGI [54]: > 100 µM
